Results on 96 sequences are retold here after the OligoGym collection.

Bases are written 5' to 3'; sugars and linkages follow in the same order, as letters with counts (s phosphorothioate, o phosphodiester; PS: all linkages phosphorothioate). The collection does not say whether C is 5-methylated. l = locked nucleic acid (LNA); d = 2'-deoxy (DNA)

In the series the target is Tau. Briefly: rat primary cortical neurons, FLIPR, 25 uM ASO.
With “ATACTCAAATTCTTCCTT (sugars l4 d11 l3, PS)”, the calcium oscillation score was 70.9 % of control.

In the case of TTCTTCATTCTTGCCC (sugars l2 d12 l2, PS), the calcium oscillation score is 15.5 % of control.

For AATTAAATTTCTCCCTG (sugars l4 d9 l4, PS), the calcium oscillation score was 34.1 % of control.

For the sequence TTCACTTAGTAACCAA (sugars l4 d8 l4, PS), the calcium oscillation score was 62 % of control.

Consider “TTTTTCTTGTTCTAACCC (sugars l4 d12 l2, PS)”, for which the calcium oscillation score is 56.1 % of control.

With “AACCAACTTTCATCTACTTT (sugars l4 d14 l2, PS)”, the calcium oscillation score is 63 % of control.

GCATGATTGTGGGCTT (sugars l3 d10 l3, PS): the calcium oscillation score is 47.4 % of control.

Turning to “TTATTAATTCATAAATGACT (sugars l3 d14 l3, PS)”, the calcium oscillation score is 42.3 % of control.

Regarding “ACCCCGAATTTACACCC (sugars l1 d14 l2, PS)”, the calcium oscillation score is 86.2 % of control.

Take AATAAGAAAGGAACGC (sugars l4 d9 l3, PS): the calcium oscillation score is 102 % of control.

Take “CACCCTTACACATAGCT (sugars l3 d12 l2, PS)”: the calcium oscillation score was 55.6 % of control.

Take “CGCACCAGGAACCTTCCAGA (sugars l3 d14 l3, PS)”: the calcium oscillation score was 28.2 % of control.

Consider GCTGAGGTGCTCTGGT (sugars l3 d10 l3, PS), for which the calcium oscillation score is 19.2 % of control.

For the sequence GCGACTTGTACACG (sugars l3 d8 l3, PS), the calcium oscillation score is 63.7 % of control.

Consider “TTATTTCCAAATTCACTTTT (sugars lldldldddddddddldlll, PS)”, for which the calcium oscillation score was 106 % of control.

As for CTGGTTTATGATGG (sugars l3 d8 l3, PS), the calcium oscillation score is 32.6 % of control.

Consider “CTTTATTTCCAAATTCACT (sugars l3 d11 l1 d1 l3, PS)”, for which the calcium oscillation score is 116 % of control.

Consider CTTACTGATCATAATCC (sugars l4 d9 l4, PS), for which the calcium oscillation score was 85.1 % of control.

With “TTTATTTCCAAATTCACTTT (sugars l5 d10 l5, PS)”, the calcium oscillation score was ≥ 200 % of control.

On to “TATTGAACTCACCCACTC (sugars l2 d13 l3, PS)”, for which the calcium oscillation score was 69 % of control.

Consider CCATGTCGATGCTGC (sugars l3 d9 l3, PS), for which the calcium oscillation score is 7.14 % of control.

As to “CTTTATTTCCAAATTCACT (sugars l3 d11 l5, PS)”, the calcium oscillation score was 121 % of control.

As for “CCATCCTAAGTCAACCA (sugars l2 d13 l2, PS)”, the calcium oscillation score is 62.8 % of control.

In the case of CAGGAGTTGTAAGC (sugars l3 d8 l3, PS), the calcium oscillation score is 77.5 % of control.

As to TTGAAGTCCCGAGCCA (sugars l3 d10 l3, PS), the calcium oscillation score was 2.38 % of control.

With GGTGCTCTGGTCAA (sugars l3 d8 l3, PS), the calcium oscillation score was 102 % of control.

Regarding TTTGGCGTTCTCGC (sugars l3 d8 l3, PS), the calcium oscillation score was 28.7 % of control.

As to AGAAATAAGTGGTAGT (sugars l4 d8 l4, PS), the calcium oscillation score is 88.1 % of control.

As for “AACAAACATCTAAACACCTC (sugars l3 d13 l4, PS)”, the calcium oscillation score is 75.1 % of control.

Turning to “CAGCCATTTTCCATATA (sugars l3 d12 l2, PS)”, the calcium oscillation score is 47.6 % of control.

On to “GTAGACTATTTGCACACTGC (sugars l3 d14 l3, PS)”, for which the calcium oscillation score is 11.1 % of control.

Consider “AACCGTTTTCTTACCAC (sugars l2 d11 l4, PS)”, for which the calcium oscillation score was 60.1 % of control.

Regarding “CCTCTCCTTTAAGAAAA (sugars l4 d10 l3, PS)”, the calcium oscillation score was 74.9 % of control.

With AACTTTTACTCTGACTA (sugars l4 d9 l4, PS), the calcium oscillation score was 51.9 % of control.

Regarding GCATCAGAGGTTTCAG (sugars l3 d10 l3, PS), the calcium oscillation score was 0 % of control.

“TCCCATCACTAGCACTA (sugars l2 d13 l2, PS)”: the calcium oscillation score was 32.8 % of control.

With “AATTTCAGAGCAAAGTGACC (sugars l3 d14 l3, PS)”, the calcium oscillation score was 2.38 % of control.

Turning to “TCCCCACCCAAACTCCAA (sugars l2 d14 l2, PS)”, the calcium oscillation score is 76.5 % of control.

For “CTTTACCCATCTTAATTC (sugars l4 d11 l3, PS)”, the calcium oscillation score was 86.1 % of control.

As for TCCCTTAATTTCAC (sugars l3 d8 l3, PS), the calcium oscillation score was 133 % of control.

As to “CCACATTTGTCTTTAAC (sugars l3 d10 l4, PS)”, the calcium oscillation score is 42.9 % of control.

On to “GGAAAGATGAAATTTGCTCT (sugars l3 d14 l3, PS)”, for which the calcium oscillation score was 74.1 % of control.

Regarding CCTTTTAATTCATTAG (sugars l4 d8 l4, PS), the calcium oscillation score is 59 % of control.

For the sequence “TCAATTCTCATTTCAACCTT (sugars l2 d15 l3, PS)”, the calcium oscillation score was 70.7 % of control.

CTCTTCCACTACAAGC (sugars l3 d11 l2, PS): the calcium oscillation score is 46.2 % of control.

In the case of TGGCGTTCTCGCGG (sugars l3 d8 l3, PS), the calcium oscillation score was 93.9 % of control.

TTTACACCACACTGTC (sugars l3 d10 l3, PS): the calcium oscillation score is 83.3 % of control.

With “TCAATTTGGAAAGATGAAAT (sugars l3 d14 l3, PS)”, the calcium oscillation score is 0 % of control.

As to AACCCCATAGACATAA (sugars l4 d8 l4, PS), the calcium oscillation score was 78.6 % of control.

For the sequence AAACAGGATACAGT (sugars l3 d8 l3, PS), the calcium oscillation score was 109 % of control.

For “GCCCCACTTTTAATTAA (sugars l2 d11 l4, PS)”, the calcium oscillation score is 86.2 % of control.

As to CATTTTCTGACTCTAAT (sugars l4 d9 l4, PS), the calcium oscillation score is 57.8 % of control.

For “CCAACTCTTTGAACACC (sugars l3 d12 l2, PS)”, the calcium oscillation score is 75.5 % of control.

Take CTAAAGTCCCAGGTC (sugars l3 d9 l3, PS): the calcium oscillation score was 40.5 % of control.

As for “TATTTCCAAATTCACTTTTA (sugars lldllddddddddddlldll, PS)”, the calcium oscillation score is 119 % of control.

In the case of ATAGTCACTCTGGTG (sugars l3 d9 l3, PS), the calcium oscillation score was 27.8 % of control.

As for “GTCCTCACTTTACACATT (sugars l3 d13 l2, PS)”, the calcium oscillation score was 41 % of control.

With TTACAAAGTCCACTTTC (sugars l4 d9 l4, PS), the calcium oscillation score is 69 % of control.

Turning to AAACTTTTACTCTGACT (sugars l4 d9 l4, PS), the calcium oscillation score was 59.4 % of control.

Consider “TGATTAACCAATTAACCGAA (sugars l3 d14 l3, PS)”, for which the calcium oscillation score was 2.59 % of control.

Regarding “GCGACTTGTACACGATCTCC (sugars l3 d14 l3, PS)”, the calcium oscillation score is 7.77 % of control.

With GTCCTAATCCTGTGC (sugars l3 d9 l3, PS), the calcium oscillation score was 36.5 % of control.

With “TCACAAACCCTGCTTGGCCA (sugars l3 d14 l3, PS)”, the calcium oscillation score was 27.6 % of control.

For the sequence “CCTCCTGGTTTATGATGGAT (sugars l3 d14 l3, PS)”, the calcium oscillation score was 58.3 % of control.

With “AACAGGAGAGCCATTTCCCA (sugars l3 d14 l3, PS)”, the calcium oscillation score was 57.1 % of control.

Turning to “AGGGACGTGGGTGATATTGT (sugars l3 d14 l3, PS)”, the calcium oscillation score is 1.3 % of control.

Consider ACTGATCATAATCCTAC (sugars l4 d9 l4, PS), for which the calcium oscillation score is 68.2 % of control.

Consider ATTAACCAATTAACCG (sugars l3 d10 l3, PS), for which the calcium oscillation score is 103 % of control.

As to CAATCCTAAACAATGC (sugars l4 d8 l4, PS), the calcium oscillation score is 45.4 % of control.

Take “ATTTCCAAATTCACTTTTAC (sugars llldldddddddddllddll, PS)”: the calcium oscillation score is 131 % of control.

As to “TCATTTACCAATTATCTTTA (sugars l4 d13 l3, PS)”, the calcium oscillation score is 48.8 % of control.

Turning to “CCTCTGTCTTAACTTTT (sugars l3 d10 l4, PS)”, the calcium oscillation score was 97 % of control.

CCATTTTCCATATAATT (sugars l4 d9 l4, PS): the calcium oscillation score is 76.5 % of control.

As to “CCAGACACCACTGGCGACTT (sugars l3 d14 l3, PS)”, the calcium oscillation score is 128 % of control.

For CCATCACTTCGAACTC (sugars l3 d10 l3, PS), the calcium oscillation score was ≥ 200 % of control.

Consider CTTGGCTTTGGCGTTC (sugars l3 d10 l3, PS), for which the calcium oscillation score is 2.61 % of control.

Turning to ACCTCCTGGTTTATGA (sugars l3 d10 l3, PS), the calcium oscillation score was 32.2 % of control.

“TGAACAGGAGAGCCATTTCC (sugars l3 d14 l3, PS)”: the calcium oscillation score is 7.14 % of control.

Take “ACTTGGGTGGAGTACGGACC (sugars l3 d14 l3, PS)”: the calcium oscillation score is 0 % of control.

As for CGGCGCAGGCGCGAGC (sugars l3 d10 l3, PS), the calcium oscillation score was 2.71 % of control.

For “TATTTCCAAATTCACTTTTA (sugars lldlldddddddddlddlll, PS)”, the calcium oscillation score is 76.7 % of control.

Turning to GCCTCATAAACCTAAT (sugars l3 d9 l4, PS), the calcium oscillation score was 68.2 % of control.

For CCCAAGAGGCACAAGT (sugars l3 d10 l3, PS), the calcium oscillation score was 89.5 % of control.

TGTCCAAACTTTTACT (sugars l4 d8 l4, PS): the calcium oscillation score is 60.8 % of control.

Turning to “ACTTTATTTCCAAATTCACTT (sugars l5 d11 l5, PS)”, the calcium oscillation score is 121 % of control.

Take “AACATTCTCACCAAACCCA (sugars l3 d14 l2, PS)”: the calcium oscillation score was 78.4 % of control.

“AAAAAGTCCATTCCCTC (sugars l3 d10 l4, PS)”: the calcium oscillation score is 64 % of control.

For GTGACAGAAGAGACGT (sugars l3 d10 l3, PS), the calcium oscillation score was 0 % of control.

As to “CCATTTTCACTGTTCACA (sugars l2 d14 l2, PS)”, the calcium oscillation score is 86.3 % of control.

TAAGGCAAGGCCTATT (sugars l3 d10 l3, PS): the calcium oscillation score was 27.2 % of control.

As to TTTGTAGACTATTT (sugars l3 d8 l3, PS), the calcium oscillation score was 90.7 % of control.

On to “CCCACAGCACTAAATTT (sugars l3 d11 l3, PS)”, for which the calcium oscillation score is 83.5 % of control.

Take “AGCCACACTTGGAGGTCACC (sugars l3 d14 l3, PS)”: the calcium oscillation score was 0 % of control.

In the case of AGCCCTAAAGTCCCAG (sugars l3 d10 l3, PS), the calcium oscillation score is 38.1 % of control.

Regarding “CACTTTCCTAATTCCCAA (sugars l2 d13 l3, PS)”, the calcium oscillation score is 72.7 % of control.

Turning to AACTGGTTTGTAGACT (sugars l3 d10 l3, PS), the calcium oscillation score was 0 % of control.
